From patent US6472418B1, “Non-peptide NK1 receptors antagonists” (Warner-Lambert Company, priority 1998, dated 2002) come the findings set out here.

In general, IC50 refers to the concentration needed to halve the response being measured.

In one assay the target is T1, Human NK1 Receptor (Homo sapiens, UniProt P25103).
T1 construct: endogenous in cells; host or cells: Human lymphoma IM9 cells (whole cells)
T1 sequence (P25103 whole entry): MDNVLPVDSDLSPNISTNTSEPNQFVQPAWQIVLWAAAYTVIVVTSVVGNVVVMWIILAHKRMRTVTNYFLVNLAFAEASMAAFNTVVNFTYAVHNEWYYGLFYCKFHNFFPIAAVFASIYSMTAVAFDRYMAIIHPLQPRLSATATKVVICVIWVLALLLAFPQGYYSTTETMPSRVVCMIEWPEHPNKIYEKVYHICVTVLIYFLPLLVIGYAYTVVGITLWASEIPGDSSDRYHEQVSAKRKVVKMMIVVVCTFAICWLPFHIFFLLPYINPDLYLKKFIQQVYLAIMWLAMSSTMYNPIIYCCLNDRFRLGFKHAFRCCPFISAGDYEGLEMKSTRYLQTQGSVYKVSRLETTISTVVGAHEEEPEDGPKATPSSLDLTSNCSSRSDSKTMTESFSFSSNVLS
Description: In Vitro Human NK1 Receptor Binding Assay ([125I]Bolton-Hunter substance P displacement, IM9 cells). The following applies: Human lymphoma IM9 cells, [125I]Bolton-Hunter substance P; Table 3, array-synthesis products; read-out: IC50 (nM) hNK1. As for the experimental part:
They have been evaluated in an NK1-receptor binding assay which is described below.
Human lymphoma IM9 cells were grown in RPMI 1640 culture medium supplemented with 10% fetal calf serum and 2 mM glutamine and maintained under an atmosphere of 5% CO2. Cells were passaged every 3-4 days by reseeding to a concentration of 4-8×10^6/40 ml per 175 cm^2 flask. Cells were harvested for experiments by centrifugation at 1000 g for 3 min. Pelleted cells were washed once by resuspension into assay buffer (50 mM Tris HCl pH 7.4, 3 mM MnCl2, 0.02% BSA, […] bacitracin, […] chymostatin, 2 mM phosphoramidon, […] leupeptin) and repeating the centrifugation step before resuspending at a concentration of 2.5×10^6 cells/mL assay buffer. Cells ([…]) were incubated with [^125I]Bolton-Hunter substance P (0.05-0.1 nM) in the presence and absence of varying concentrations of test compounds for 50 min at 21° C. Non-specific binding (10% of the total binding observed under these conditions) was defined by […] [Sar^9, Met(02)^11] substance P. Reactions were terminated by rapid filtration under vacuum onto GF\C filters presoaked in 0.2% PEI for 1-2 h, using a Brandel cell harvester. Filters were washed with 6×1 ml ice-cold Tris HCl (50 mM, pH 7.4) and radioactivity bound determined using a gamma couter. Results were analyzed using iterative curve fitting procedures in RS1 or Graphpad Inplot.
In the case of `O=C(NCc1ccccc1C(F)(F)F)C(Cc1c[nH]c2ccccc12)NCc1cc2ccccc2o1` (stereo not drawn) [Example 292, 2-[(Benzofuran-2-ylmethyl)-amino]-3-(1H-indol-3-yl)-N-(2-trifluoromethyl-benzyl)-propionamide], the IC50 stood at 1130 nM. The same measure, in the same setting: the same measure for `O=C(NCC1CCCCC1)C(Cc1c[nH]c2ccccc12)NCc1cc2ccccc2o1` (stereo not drawn) [Example 226, 2-[(Benzofuran-2-ylmethyl)-amino]-N-cyclohexylmethyl-3-(1H-indol-3-yl)-propionamide]: 54 nM; for `O=C(NCc1nc2ccccc2[nH]1)C(Cc1c[nH]c2ccccc12)NCc1cc2ccccc2o1` (stereo not drawn) [Example 250, 2-[(Benzofuran-2-ylmethyl)-amino]-N-(1H-benzoimidazol-2-ylmethyl)-3-(1H-indol-3-yl)-propionamide]: 3410 nM. In the case of `O=C(NCCc1cccc(F)c1)C(Cc1c[nH]c2ccccc12)NCc1cc2ccccc2o1` (stereo not drawn) [Example 293, 2-[(Benzofuran-2-ylmethyl)-amino]-N-[2-(3-fluoro-phenyl)-ethyl]-3-(1H-indol-3-yl)-propionamide], the IC50 amounted to 55 nM. `CC(NC(=O)C(Cc1c[nH]c2ccccc12)NCc1cc2ccccc2o1)c1ccc(Cl)s1` (stereo not drawn) [Example 243, 2-[(Benzofuran-2-ylmethyl)-amino]-N-[1-(5-chloro-thiophen-2-yl)-ethyl]-3-(1H-indol-3-yl)-propionamide]: the IC50 worked out at 15 nM.

Turning to `O=C(NCc1cnc2ccccc2c1)C(Cc1c[nH]c2ccccc12)NCc1cc2ccccc2o1` (stereo not drawn) [Example 205, 2-[(Benzofuran-2-ylmethyl)-amino]-3-(1H-indol-3-yl)-N-quinolin-3-ylmethyl-propionamide], the IC50 turned out to be 2320 nM. For `O=C(NCc1ccccc1Cl)C(Cc1c[nH]c2ccccc12)NCc1cc2ccccc2o1` (stereo not drawn) [Example 298, 2-[(Benzofuran-2-ylmethyl)-amino]-N-(2-chloro-benzyl)-3-(1H-indol-3-yl)-propionamide], the IC50 was determined as 221 nM.

As to `O=C(NCc1ccccc1Br)C(Cc1c[nH]c2ccccc12)NCc1cc2ccccc2o1` (stereo not drawn) [Example 302, 2-[(Benzofuran-2-ylmethyl)-amino]-N-(2-bromo-benzyl)-3-(1H-indol-3-yl)-propionamide], the IC50 worked out at 174 nM. Same read-out and setting: then `N#CC(NC(=O)C(Cc1c[nH]c2ccccc12)NCc1cc2ccccc2o1)c1ccccc1` (stereo not drawn) [Example 287, 2-[(Benzofuran-2-ylmethyl)-amino]-N-(cyano-phenyl-methyl)-3-(1H-indol-3-yl)-propionamide], with 35 nM; and `Cc1ccc(CCNC(=O)C(Cc2c[nH]c3ccccc23)NCc2cc3ccccc3o2)cc1` (stereo not drawn) [Example 300, 2-[(Benzofuran-2-ylmethyl)-amino]-3-(1H-indol-3-yl)-N-(2-p-tolyl-ethyl)-propionamide], with 256 nM. Regarding `O=C(NCc1cccc(Cl)c1)C(Cc1c[nH]c2ccccc12)NCc1cc2ccccc2o1` (stereo not drawn) [Example 263, 2-[(Benzofuran-2-ylmethyl)-amino]-N-(3-chloro-benzyl)-3-(1H-indol-3-yl)-propionamide], the IC50 came out at 9 nM.

As to `CN(C)c1ccc(CNC(=O)C(Cc2c[nH]c3ccccc23)NCc2cc3ccccc3o2)cc1` (stereo not drawn) [Example 214, 2-[(Benzofuran-2-ylmethyl)-amino]-N-(4-dimethylamino-benzyl)-3-(1H-indol-3-yl)-propionamide], the IC50 turned out to be 4010 nM.

Still in this assay, the particulars now being: Table 4; [125I]Bolton-Hunter substance P displacement, human IM9 cells; read-out: IC50 (nM) hNK1.
“2-(4-Benzyloxy-benzylamino)-3-(1H-indol-3-yl)-2-methyl-N-(1-phenyl-ethyl)-propionamide [compound 341]”: the IC50 is over 10000 nM. Same read-out and setting: the same measure for `CC(NC(=O)C(C)(Cc1c[nH]c2ccccc12)NCc1cccc(OCc2ccccc2)c1)c1ccccc1` (stereo not drawn) [compound 344, 2-(3-Benzyloxy-benzylamino)-3-(1H-indol-3-yl)-2-methyl-N-(1-phenyl-ethyl)-propionamide]: 185 nM.

Still in this assay, the particulars now being: Table 5; [125I]Bolton-Hunter substance P displacement, human IM9 cells; read-out: IC50 (nM) hNK1.
For the compound `CCOC(=O)Nc1ccccc1CNC(Cc1c[nH]c2ccccc12)C(=O)NC(C)c1ccccc1` (stereo not drawn) [compound 367], the IC50 worked out at 236 nM. Consider `CC(NC(=O)C(Cc1c[nH]c2ccccc12)NCc1cccs1)c1ccccc1` (stereo not drawn) [compound 396], for which the IC50 turned out to be 1070 nM. With `CC(NC(=O)C(Cc1c[nH]c2ccccc12)NCc1cccc(F)c1)c1ccccc1` (stereo not drawn) [compound 401], the IC50 turned out to be 39 nM. Turning to `Cc1c(-c2ccccc2)occ(CNC(Cc2c[nH]c3ccccc23)C(=O)NC(C)c2ccccc2)c1=O` (stereo not drawn) [compound 373], the IC50 worked out at 507 nM.

The assay is the same for the next values; noted with them: human NK1 receptor, IM9 cells, [125I]Bolton-Hunter substance P; read-out: IC50 (nM) hNK1.
`CC(NC(=O)C(C)(Cc1c[nH]c2ccccc12)NCc1cc2ccccc2o1)c1ccccc1N` (stereo not drawn) [compound 36, N-[1-(2-Amino-phenyl)-ethyl]-2-[(benzofuran-2-ylmethyl)-amino]-3-(1H-indol-3-yl)-2-methyl-propionamide]: the IC50 stood at 1620 nM. Take `CC(Cc1c[nH]c2ccccc12)(NCc1cc2ccccc2o1)C(=O)NC1NC(=O)c2ccccc21` (stereo not drawn) [compound 85]: the half-inhibitory concentration (IC50) worked out at 2440 nM.

Consider `CC(Cc1c[nH]c2ccccc12)(NCc1cc2ccccc2o1)C(=O)NCc1ccc(N)cc1` (stereo not drawn) [compound 62, N-(4-Amino-benzyl)-2-[(benzofuran-2-ylmethyl)-amino]-3-(1H-indol-3-yl)-2-methyl-propionamide], for which the IC50 was 837 nM. Regarding `Cc1cc(C)c(CNC(=O)C(C)(Cc2c[nH]c3ccccc23)NCc2cc3ccccc3o2)cn1` (stereo not drawn) [compound 169, 2-[(Benzofuran-2-ylmethyl)-amino]-N-(4,6-dimethyl-pyridin-3-ylmethyl)-3-(1H-indol-3-yl)-2-methyl-propionamide], the IC50 worked out at 6020 nM. Regarding `CC(Cc1c[nH]c2ccccc12)(NCc1cc2ccccc2o1)C(=O)NCCc1ccc(N)cc1` (stereo not drawn) [compound 56, N-[2-(4-Amino-phenyl)-ethyl]-2-[(benzofuran-2-ylmethyl)-amino]-3-(1H-indol-3-yl)-2-methyl-propionamide], the IC50 came out at 3230 nM. Same read-out and setting: the same measure for `CC(Cc1c[nH]c2ccccc12)(NCc1cc2ccccc2o1)C(=O)NCc1cnc2ccccc2c1` (stereo not drawn) [compound 151, 2-[(Benzofuran-2-ylmethyl)-amino]-3-(1H-indol-3-yl)-2-methyl-N-quinolin-3-ylmethyl-propionamide]: 1210 nM; for `CN(C)c1cccc(C2(CNC(=O)C(C)(Cc3c[nH]c4ccccc34)NCc3cc4ccccc4o3)CCCC2)c1` (stereo not drawn) [compound 102, 2-[(Benzofuran-2-ylmethyl)-amino]-N-[1-(3-dimethylamino-phenyl)-cyclopentylmethyl]-3-(1H-indol-3-yl)-2-methyl-propionamide]: over 10000 nM. Take `CC(Cc1c[nH]c2ccccc12)(NCc1cc2ccccc2o1)C(=O)NCCc1ccco1` (stereo not drawn) [compound 115, 2-[(Benzofuran-2-ylmethyl)-amino]-N-(2-furan-2-yl-ethyl)-3-(1H-indol-3-yl)-2-methyl-propionamide]: the IC50 stood at 154 nM. Consider `CC(CNC(=O)C(C)(Cc1c[nH]c2ccccc12)NCc1cc2ccccc2o1)c1ccccc1` (stereo not drawn) [compound 150, 2-[(Benzofuran-2-ylmethyl)-amino]-3-(1H-indol-3-yl)-2-methyl-N-(2-phenyl-propyl)-propionamide], for which the IC50 turned out to be 262 nM. Regarding `CC(Cc1cccc(C(F)(F)F)c1)NC(=O)C(C)(Cc1c[nH]c2ccccc12)NCc1cc2ccccc2o1` (stereo not drawn) [compound 79, 2-[(Benzofuran-2-ylmethyl)-amino]-3-(1H-indol-3-yl)-2-methyl-N-[1-methyl-2-(3-trifluoromethyl-phenyl)-ethyl]-propionamide], the IC50 is over 10000 nM. Still for that read-out and setting: the same measure for `CC(Cc1c[nH]c2ccccc12)(NCc1cc2ccccc2o1)C(=O)NC1(CN2CCCCC2)CCCCC1` (stereo not drawn) [compound 89, 2-[(Benzofuran-2-ylmethyl)-amino]-3-(1H-indol-3-yl)-2-methyl-N-(1-piperidin-1-ylmethyl-cyclohexyl)-propionamide]: 6740 nM.

For the compound `CC(Cc1c[nH]c2ccccc12)(NCc1cc2ccccc2o1)C(=O)NCCc1ccc(S(N)(=O)=O)cc1` (stereo not drawn) [compound 47, 2-[(Benzofuran-2-ylmethyl)-amino]-3-(1H-indol-3-yl)-2-methyl-N-[2-(4-sulfamoyl-phenyl)-ethyl]-propionamide], the half-inhibitory concentration (IC50) was 7620 nM. As to `CC(Cc1c[nH]c2ccccc12)(NCc1cc2ccccc2o1)C(=O)NCc1ccco1` (stereo not drawn) [compound 127, 2-[(Benzofuran-2-ylmethyl)-amino]-N-furan-2-ylmethyl-3-(1H-indol-3-yl)-2-methyl-propionamide], the IC50 turned out to be 191 nM.

Turning to `CC(Cc1c[nH]c2ccccc12)(NCc1cc2ccccc2o1)C(=O)NCc1ccccc1` (stereo not drawn) [compound 28, 2-[(Benzofuran-2-ylmethyl)-amino]-N-benzyl-3-(1H-indol-3-yl)-2-methyl-propionamide], the IC50 was 44 nM. As for `Cc1cccc(CNC(=O)C(C)(Cc2c[nH]c3ccccc23)NCc2cc3ccccc3o2)c1C` (stereo not drawn) [compound 54, 2-[(Benzofuran-2-ylmethyl)-amino]-N-(2,3-dimethyl-benzyl)-3-(1H-indol-3-yl)-2-methyl-propionamide], the IC50 worked out at 834 nM.
